Source: US5190961A, “Thiourea derivatives and antimicrobial agent and antulcer agent containing the same” (Terumo Kabushiki Kaisha, priority 1990, dated 1993)
≈ marks a conversion by molar mass, not a printed value.

Experiments:
[1] = system: peptic ulcer induced by water immersion restraint stress; test: Inhibitory action against the peptic ulcer induced by water immersion restraint stress; type: in vivo; conditions: Rattus norvegicus; SD male rats, 32 mg/kg oral, water immersion restraint stress 23° C., 7 hours; read-out: Inhibitory action against stress peptic ulcer, Percent inhibition of p.u. formation
Method: (1) Inhibitory action against the peptic ulcer induced by water immersion restraint stress
(§1) SD male rats (weighing 200-300 g) were fasted for 24 hours before oral administration of a thiourea derivative of the invention at a dose of 32 mg/kg bodyweight. One hour later, the animal was put in a stress cage and loaded with water immersion restraint stress in a water bath at 23° C. Seven hours after loading with the stress, the rate was sacrificed with ether, and the stomach was excised and treated with formalin. Area (mm^2 ) of the lesions developed in the glandular stomach area was then measured. Results were expressed in sum of the lesions per animal which was referred to as peptic ulcer index.
(§2) It was confirmed that the thiourea derivatives of the invention not shown in the table also have a similar antiulcer activity.
Percent inhibition of the peptic ulcer formation (%) as shown in the table was calculated according to the following equation: [formula]

ethanol peptic ulcer = test: Inhibitory action against ethanol peptic ulcer; type: in vivo; conditions: Rattus norvegicus; SD male rats, 32 mg/kg oral, 1 hour before ethanol 0.5 ml/100 g; read-out: Inhibitory action against ethanol peptic ulcer, Percent inhibition of p.u. formation
Method: (2) Inhibitory action against ethanol peptic ulcer
as §1, with “ethanol” for “the animal”, “orally given” for “put”, “volume of 0.5 ml/100 g bodyweight. One hour after treating” for “stress cage and loaded”, “ethanol,” for “water immersion restraint stress in a water bath at 23° C. Seven hours after loading with”, “rat” for “stress, the rate”, “(mm^2)” for “(mm^2 )”
as §2
Percent inhibition of the peptic ulcer formation (%) as shown in the table was calculated according to the same equation as mentioned above.

Helicobacter pylori = test: Antimicrobial activity against Helicobacter pylori (MIC); type: cell-based, Helicobacter pylori strain NCTC 11916; conditions: NCTC11916, strain NCTC 11916, twofold dilution, 37° C., 3-5 days, O2 about 5%
Method: (3) Antimicrobial activity against Helicobacter pylori
Antimicrobial activity of the thiourea derivatives according to the invention against Helicobacter pylori (or Campylobacter pylori) was evaluated by employing strain NCTC 11916 as a Helicobacter test organism and determining MIC (minimum inhibitory concentration) for the strain with the thiourea derivative.
The Helicobacter pylori was pre-incubated in a plate medium for 3-5 days. The medium was prepared by dissolving 38 g of a Mueller-Hinton medium (manufactured by Difco) in an appropriate amount of distilled water, sterilizing the solution in an autoclave, adding to the solution 50 ml of a horse hemolysis solution (manufactured by Nippon Seibutu Zairyou Center: Horse defibrinized blood, hemolyzed by a lyophilization treatment) and 2 ml of Skirrow, a Campylobacter selective supplement (manufactured by OXOID) containing vancomycin (5 mg), trimethoprim (2.5 mg) and polymyxin B (1250 IU) per vial (2 ml), and further an appropriate amount of distilled water to a volume of 1L in total and expanding and solidifying the solution on a dish. These antibiotics were contained for inhibition of the growth of microorganism other than Helicobacter pylori. The Helicobacter pylori pre-incubated under slightly aerobic conditions (an O2 concentration of about 5%) at 37° C. for 3-5 days was suspended in a physiological saline solution in a concentration of approximately 10^8 organisms/ml. Approximately 10-20 μl of the suspension was inoculated on a medium for MIC measurement in cross streaks. […] The DMSO solution was formed by the twofold dilution method. As in the pre-incubation, the Helicobacter pylori was cultured under slightly aerobic conditions at 37° C. for 3-5 days. After completion of the culture, growth of the microoranisms on the streaks was visually determined. The minimum concentration of the thiourea derivative in which no growth was observed was taken as MIC.
It was confirmed that the thiourea derivatives of the invention not shown in the table also have a similar antimicrobial activity.

CNC(=S)NCCCC(=O)NCCCOc1cccc(CN2CCCCC2)c1 [Example 1, 1-[3-[N-[3-[3-(piperidinomethyl)phenoxy]propyl]carbamoyl]propyl]-3-methylthiourea] gave an inhibition in vivo at 32 mg/kg [1] of 92.1%, an inhibition in vivo at 32 mg/kg (ethanol peptic ulcer) of 51.4% and an MIC (Helicobacter pylori) of 6.25 µg/mL (≈ 15.4 µM).

Work on CCCCNC(=S)NCCCC(=O)NCCCOc1cccc(CN2CCCCC2)c1 [Example 2] yielded an inhibition in vivo at 32 mg/kg [1] of 67.1%, an inhibition in vivo at 32 mg/kg (ethanol peptic ulcer) of 75.7% and an MIC (Helicobacter pylori) of 6.25 µg/mL (≈ 13.9 µM).

O=C(CCCNC(=S)Nc1ccccc1)NCCCOc1cccc(CN2CCCCC2)c1 [Example 3, 1-[3-[N-(3-[3-(piperidinomethyl)phenoxy]propyl]carbamoyl]propyl]-3-phenylthiourea] was tested, and the inhibition in vivo at 32 mg/kg [1] was 80.5%, the inhibition in vivo at 32 mg/kg (ethanol peptic ulcer) was 88.7% and the MIC (Helicobacter pylori) was 12.5 µg/mL (≈ 26.7 µM).

Compound O=C(CCCNC(=S)Nc1ccc(Cl)cc1)NCCCOc1cccc(CN2CCCCC2)c1 [Example 4, 1-[3-[N-[3-[3-(piperidinomethyl)phenoxy]propyl]carbamoyl]propyl]-3-(p-chlorophenyl)thiourea] has an inhibition in vivo at 32 mg/kg [1] of 74.6%, an inhibition in vivo at 32 mg/kg (ethanol peptic ulcer) of 78.2% and an MIC (Helicobacter pylori) of 6.25 µg/mL (≈ 12.4 µM).

O=C(CCCNC(=S)NC1CCCCC1)NCCCOc1cccc(CN2CCCCC2)c1 [Example 5, 1-[3-[N-[3-[3-(piperidinomethyl)phenoxy]propyl]carbamoyl]propyl]-3-cyclohexylthiourea] was tested, and the inhibition in vivo at 32 mg/kg [1] was 70.5%, the inhibition in vivo at 32 mg/kg (ethanol peptic ulcer) was 82.3% and the MIC (Helicobacter pylori) was 6.25 µg/mL (≈ 13.2 µM).

With O=C(CCCNC(=S)NCCc1ccccc1)NCCCOc1cccc(CN2CCCCC2)c1 [Example 6] the inhibition in vivo at 32 mg/kg [1] was 76.9%, the inhibition in vivo at 32 mg/kg (ethanol peptic ulcer) was 84.4% and the MIC (Helicobacter pylori) was 6.25 µg/mL (≈ 12.6 µM).

O=C(CCCNC(=S)Nc1cccc2ccccc12)NCCCOc1cccc(CN2CCCCC2)c1 [Example 7, 1-[3-[N-[3-[3-(piperidinomethyl)phenoxy]-propyl]carbamoyl]propyl]-3-(1-naphthyl)thiourea] showed an inhibition in vivo at 32 mg/kg [1] of 88.3%, an inhibition in vivo at 32 mg/kg (ethanol peptic ulcer) of 92% and an MIC (Helicobacter pylori) of 6.25 µg/mL (≈ 12 µM).

O=C(CCCNC(=S)Nc1cccnc1)NCCCOc1cccc(CN2CCCCC2)c1 [Example 8] showed an inhibition in vivo at 32 mg/kg [1] of 82.2%, an inhibition in vivo at 32 mg/kg (ethanol peptic ulcer) of 65% and an MIC (Helicobacter pylori) of 12.5 µg/mL (≈ 26.6 µM).

O=C(CCCNC(=S)Nc1ccccc1)NCCCOc1cccc(CN2CCCC2)c1 [Example 9, 1-[3-[N-[3-[3-(pyrrolidinomethyl)phenoxy]propyl]carbamoyl]propyl]-3-phenylthiourea] gave an inhibition in vivo at 32 mg/kg [1] of 58.6%, an inhibition in vivo at 32 mg/kg (ethanol peptic ulcer) of 77.9% and an MIC (Helicobacter pylori) of 6.25 µg/mL (≈ 13.7 µM).

Cc1ccccc1NC(=S)NCCCC(=O)NCCCOc1cccc(CN2CCCCC2)c1 [Example 10, 1-[3-[N-[3-[3-(piperidinomethyl)phenoxyl]propyl]carbamoyl]propyl]-3-(O-methylphenyl)thiourea] gave an inhibition in vivo at 32 mg/kg [1] of 82.2%, an inhibition in vivo at 32 mg/kg (ethanol peptic ulcer) of 94.2% and an MIC (Helicobacter pylori) of 6.25 µg/mL (≈ 12.9 µM).

For Cc1cc(C)cc(NC(=S)NCCCC(=O)NCCCOc2cccc(CN3CCCCC3)c2)c1 [Example 11, 1-[3-[N-[3-[3-(piperidinomethyl)phenoxy]propyl]carbamoyl]propyl]-3-(3,5-dimethylphenyl)thiourea], the inhibition in vivo at 32 mg/kg [1] was 85.5%, the inhibition in vivo at 32 mg/kg (ethanol peptic ulcer) was 92.8% and the MIC (Helicobacter pylori) was 6.25 µg/mL (≈ 12.6 µM).

Work on Cc1cc(C)c(NC(=S)NCCCC(=O)NCCCOc2cccc(CN3CCCCC3)c2)c(C)c1 [Example 12, 1-[3-[N-[3-[3-(piperidinomethyl)phenoxy]propyl]carbamoyl]propyl]-3-(2,4,6-trimethylphenyl)thiourea] yielded an inhibition in vivo at 32 mg/kg [1] of 77.1%, an inhibition in vivo at 32 mg/kg (ethanol peptic ulcer) of 80.2% and an MIC (Helicobacter pylori) of 6.25 µg/mL (≈ 12.2 µM).

In the case of CC(C)c1ccc(NC(=S)NCCCC(=O)NCCCOc2cccc(CN3CCCCC3)c2)cc1 [Example 13, 1-[3-[N-[3-[3-(piperidinomethyl)phenoxy]propyl]carbamoyl]propyl]-3-(p-isopropylphenyl)thiourea], the inhibition in vivo at 32 mg/kg [1] is reported as 77.3%, the inhibition in vivo at 32 mg/kg (ethanol peptic ulcer) is reported as 90.2% and the MIC (Helicobacter pylori) is reported as 6.25 µg/mL (≈ 12.2 µM).

COc1ccccc1NC(=S)NCCCC(=O)NCCCOc1cccc(CN2CCCCC2)c1 [Example 14, 1-[3-[N-[3-[3-(piperidinomethyl)phenoxy]propyl]-carbamoyl]propyl]-3-(O-methoxyphenyl)thiourea] was tested, and the inhibition in vivo at 32 mg/kg [1] was 91.2%, the inhibition in vivo at 32 mg/kg (ethanol peptic ulcer) was 94.3% and the MIC (Helicobacter pylori) was 6.25 µg/mL (≈ 12.5 µM).

For COc1cccc(NC(=S)NCCCC(=O)NCCCOc2cccc(CN3CCCCC3)c2)c1 [Example 15, 1-[3-[N-[3-[3-(piperidinomethyl)phenoxy]propyl]carbamoyl]propyl]-3-(3-methoxyphenyl)thiourea], the inhibition in vivo at 32 mg/kg [1] was 78.3%, the inhibition in vivo at 32 mg/kg (ethanol peptic ulcer) was 92.1% and the MIC (Helicobacter pylori) was 6.25 µg/mL (≈ 12.5 µM).

In the case of CCCCOc1ccccc1NC(=S)NCCCC(=O)NCCCOc1cccc(CN2CCCCC2)c1 [Example 16, 1-[3-[N-[3-[3-(piperidinomethyl)phenoxy]propyl]carbamoyl]propyl]-3-(O-n-buthoxyphenyl)thiourea], the inhibition in vivo at 32 mg/kg [1] is reported as 71.7%, the inhibition in vivo at 32 mg/kg (ethanol peptic ulcer) is reported as 93.3% and the MIC (Helicobacter pylori) is reported as 6.25 µg/mL (≈ 11.6 µM).

Compound O=C(CCCNC(=S)Nc1ccccc1Oc1ccccc1)NCCCOc1cccc(CN2CCCCC2)c1 [Example 17, 1-[3-[N-[3-[3-(piperidinomethyl)phenoxy]propyl]carbamoyl]propyl]-3-(O-phenoxyphenyl)thiourea] has an inhibition in vivo at 32 mg/kg [1] of 62.2%, an inhibition in vivo at 32 mg/kg (ethanol peptic ulcer) of 73.3% and an MIC (Helicobacter pylori) of 12.5 µg/mL (≈ 22.3 µM).

COc1cc(NC(=S)NCCCC(=O)NCCCOc2cccc(CN3CCCCC3)c2)cc(OC)c1OC [Example 18, 1-[3-[N-[3-[3-(piperidinomethyl)phenoxy]propyl]carbamoyl]propyl]-3-(3,4,5-trimethoxyphenyl)thiourea] was tested, and the inhibition in vivo at 32 mg/kg [1] was 60.6%, the inhibition in vivo at 32 mg/kg (ethanol peptic ulcer) was 83.8% and the MIC (Helicobacter pylori) was 6.25 µg/mL (≈ 11.2 µM).

In the case of COc1cccc(C)c1NC(=S)NCCCC(=O)NCCCOc1cccc(CN2CCCCC2)c1 [Example 19, 1-[3-[N-[3-[3-(piperidinomethyl)phenoxy]propyl]carbamoyl]propyl]-3-(2-methoxy-6-methylphenyl)thiourea], the inhibition in vivo at 32 mg/kg [1] is reported as 90.1%, the inhibition in vivo at 32 mg/kg (ethanol peptic ulcer) is reported as 94.6% and the MIC (Helicobacter pylori) is reported as 6.25 µg/mL (≈ 12.2 µM).

With N#Cc1cccc(NC(=S)NCCCC(=O)NCCCOc2cccc(CN3CCCCC3)c2)c1 [Example 20, 1-[3-[N-[3-[3-(piperidinomethyl)phenoxy]propyl]carbamoyl]propyl]-3-(3-cyanophenyl)thiourea] the inhibition in vivo at 32 mg/kg [1] was 70.2%, the inhibition in vivo at 32 mg/kg (ethanol peptic ulcer) was 83.5% and the MIC (Helicobacter pylori) was 12.5 µg/mL (≈ 25.3 µM).

With CSc1ccccc1NC(=S)NCCCC(=O)NCCCOc1cccc(CN2CCCCC2)c1 [Example 21, 1-[3-[N-[3-[3-(piperidinomethyl)phenoxy]propyl]carbamoyl]propyl]-3-(2-methylthiophenyl)thiourea] the inhibition in vivo at 32 mg/kg [1] was 85.5%, the inhibition in vivo at 32 mg/kg (ethanol peptic ulcer) was 81.1% and the MIC (Helicobacter pylori) was 6.25 µg/mL (≈ 12.1 µM).

Work on O=C(CCCNC(=S)Nc1ccccc1C(F)(F)F)NCCCOc1cccc(CN2CCCCC2)c1 [Example 22, 1-[3-[N-[3-[3-(piperidinomethyl)phenoxy]propyl]carbamoyl]propyl]-3-(2-trifluoromethylphenyl)thiourea] yielded an inhibition in vivo at 32 mg/kg [1] of 83.3%, an inhibition in vivo at 32 mg/kg (ethanol peptic ulcer) of 76.4% and an MIC (Helicobacter pylori) of 6.25 µg/mL (≈ 11.6 µM).

With O=C(CCCNC(=S)Nc1ccccc1[N+](=O)[O-])NCCCOc1cccc(CN2CCCCC2)c1 [Example 23, 1-[3-[N-[3-[3-(piperidinomethyl)phenoxy]propyl]carbamoyl]propyl]-3-(O-nitrophenyl)thiourea] the inhibition in vivo at 32 mg/kg [1] was 76.4%, the inhibition in vivo at 32 mg/kg (ethanol peptic ulcer) was 72.3% and the MIC (Helicobacter pylori) was 6.25 µg/mL (≈ 12.2 µM).

COCOc1ccccc1NC(=S)NCCCC(=O)NCCCOc1cccc(CN2CCCCC2)c1 [Example 24, 1-[3-[N-[3-[3-(piperidinomethyl)phenoxy]propyl]carbamoyl]propyl]-3-(2-methoxymethoxyphenyl)thiourea] gave an inhibition in vivo at 32 mg/kg [1] of 60.3%, an inhibition in vivo at 32 mg/kg (ethanol peptic ulcer) of 70.3% and an MIC (Helicobacter pylori) of 12.5 µg/mL (≈ 23.6 µM).
